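Cells were grown in 96-well plates and exposed to each compound for 48 hours at five concentrations; endpoints were interpolated linearly between bracketing concentrations, or set to the highest concentration if not reached. The concentration for 50% growth inhibition is given as GI50. The concentration for full growth arrest is given as TGI.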 Bounds are passed on as bounds.

Test systems include A549 NSCLC; ACHN renal; EKVX NSCLC; MDA-MB-231 breast; NCI-H522 lung; OVCAR-3 ovarian; OVCAR-8 ovarian; SN12C renal; TK-10 renal; SNB-75 CNS.
Holding throughout (experiment): inhibition of tumour cell growth, NCI panel, 48 h

As for `COc1cc(C2C3=C(COC3=O)N(CCO)c3cc4c(cc32)CCC4)cc(OC)c1O` (centres undefined), the GI50 was 0.499 µM in the experiment on A549 NSCLC; 0.706 µM in the experiment on ACHN renal; 1.38 µM with EKVX NSCLC; 0.76 µM in the experiment with MDA-MB-231 breast; 0.0432 µM in the experiment with NCI-H522 lung; 0.0703 µM with OVCAR-3 ovarian. Besides, the GI50 in the experiment on OVCAR-8 ovarian is 0.365 µM; in the experiment on SN12C renal, 0.499 µM; in the experiment on TK-10 renal, over 32.5 µM. Besides, the TGI was over 32.5 µM in the experiment on A549 NSCLC; over 32.5 µM with ACHN renal; over 32.5 µM in the experiment with EKVX NSCLC; over 32.5 µM in the experiment with MDA-MB-231 breast; 0.122 µM in the experiment on NCI-H522 lung; 0.184 µM with OVCAR-3 ovarian. For the same compound, the TGI with OVCAR-8 ovarian, with SN12C renal and with TK-10 renal was over 32.5 µM each time.
Consider `Cc1ccc(C2=Nc3c(N)ncnc3NC(c3cccc(Nc4ccnc5cc(C(F)(F)F)ccc45)c3)C2)cc1` (centres undefined), for which the GI50 with A549 NSCLC is 3.63 µM; with ACHN renal it was 4.69 µM; in the experiment with EKVX NSCLC it was 3.95 µM; with MDA-MB-231 breast it was 2.59 µM; with NCI-H522 lung it was 2.27 µM; in the experiment with OVCAR-3 ovarian, 3.47 µM. The GI50 is 5.89 µM in the experiment on OVCAR-8 ovarian, 4.77 µM in the experiment on SN12C renal and 6.89 µM in the experiment with TK-10 renal. Moreover, the TGI is 13.2 µM in the experiment with A549 NSCLC; over 100 µM in the experiment with ACHN renal; over 100 µM with EKVX NSCLC; 8.44 µM with MDA-MB-231 breast; 7.51 µM with NCI-H522 lung; 15.1 µM in the experiment on OVCAR-3 ovarian. For the same compound, the TGI with OVCAR-8 ovarian was 76.7 µM; in the experiment with SN12C renal it was over 100 µM; with TK-10 renal, 80.7 µM.
On to `COc1ccc(C2=CC(c3cc(OC)c(OC)c(OC)c3)n3ncnc3N2)cc1` (centres undefined), for which the GI50 in the experiment with A549 NSCLC was 0.0858 µM; with ACHN renal, 0.152 µM; in the experiment on EKVX NSCLC, 0.0788 µM; in the experiment with MDA-MB-231 breast, 0.193 µM; with NCI-H522 lung it was 0.0324 µM; in the experiment on OVCAR-3 ovarian it was 0.0286 µM. In addition, the GI50 is 0.0763 µM with OVCAR-8 ovarian, 0.141 µM in the experiment on SN12C renal and 13 µM in the experiment with TK-10 renal. The TGI with A549 NSCLC is 30.3 µM; in the experiment with ACHN renal it was 43.9 µM; in the experiment on EKVX NSCLC it was over 100 µM; with MDA-MB-231 breast it was 83.5 µM; with NCI-H522 lung, 0.654 µM; in the experiment with OVCAR-3 ovarian, 0.0764 µM. For the same compound, the TGI in the experiment with OVCAR-8 ovarian is 21.6 µM; with SN12C renal it was over 100 µM; in the experiment on TK-10 renal it was 31.7 µM.
Turning to `COC(=O)c1cc(Nc2ccc(O)c3c2C(=O)c2c([N+](=O)[O-])ccc(O)c2C3=O)cc(C(=O)OC)c1`, the GI50 in the experiment on A549 NSCLC is 1.74 µM; with ACHN renal it was 21.3 µM; in the experiment on MDA-MB-231 breast, 13.8 µM; in the experiment with NCI-H522 lung, 4.07 µM; with OVCAR-3 ovarian, 3.42 µM; in the experiment on OVCAR-8 ovarian it was 6.57 µM. In addition, the GI50 in the experiment on SN12C renal was 21.4 µM. Moreover, the TGI is 4.05 µM in the experiment on A549 NSCLC; over 100 µM in the experiment with ACHN renal; over 100 µM with MDA-MB-231 breast; 28.3 µM in the experiment on NCI-H522 lung; 21.3 µM with OVCAR-3 ovarian; over 100 µM with OVCAR-8 ovarian. The same compound registered a TGI with SN12C renal of over 100 µM.
As for `S=C(Nc1ccccc1)Nc1[nH]c(=S)sc1-c1nc2ccccc2[nH]1`, the TGI in the experiment on A549 NSCLC, with ACHN renal, with EKVX NSCLC, in the experiment on NCI-H522 lung, in the experiment on OVCAR-3 ovarian and in the experiment on OVCAR-8 ovarian was over 100 µM throughout. Besides, the TGI in the experiment on SN12C renal was over 100 µM; with SNB-75 CNS, 78.5 µM; in the experiment with TK-10 renal, over 100 µM.
For `CC(C)c1ccc(/C=C(\NC(=O)c2ccccc2)c2nc3ccccc3[nH]2)cc1`, the TGI is 82.5 µM in the experiment with A549 NSCLC; over 100 µM in the experiment with ACHN renal; 90 µM in the experiment on EKVX NSCLC; 89.5 µM with NCI-H522 lung; over 100 µM in the experiment on OVCAR-3 ovarian; 86.9 µM in the experiment with OVCAR-8 ovarian. The TGI in the experiment on SN12C renal, in the experiment on SNB-75 CNS and in the experiment with TK-10 renal was over 100 µM in each case.
For the compound `CCOC(=O)c1cnc2[nH]c(=O)c3ccccc3n2c1=O`, the TGI in the experiment with A549 NSCLC, with ACHN renal, in the experiment with EKVX NSCLC, in the experiment on NCI-H522 lung, with OVCAR-3 ovarian and with OVCAR-8 ovarian was over 100 µM each time. The TGI in the experiment with SN12C renal, in the experiment on SNB-75 CNS and with TK-10 renal was over 100 µM each time.
Take `O=C1c2ccccc2-c2cc3ccccc3c(=O)n21`: the TGI with A549 NSCLC, in the experiment with ACHN renal, in the experiment on EKVX NSCLC, in the experiment on NCI-H522 lung, in the experiment on OVCAR-3 ovarian and in the experiment with OVCAR-8 ovarian was over 100 µM throughout. Moreover, the TGI in the experiment with SN12C renal, with SNB-75 CNS and with TK-10 renal was over 100 µM throughout.
